One assay deals with HBV genotype D. In kind it is cell-based, hepatitis B virus. Conditions: primary human hepatocytes, peptide at 100 μM, 12 days after inoculation. The protocol:
FIG. 2 is a diagram showing the anti-HBV effect of a peptide from initial screening. FIG. 2(a) is a schematic diagram of a HepG2-hNTCP-C4 infection experiment. HepG2-hNTCP-C4 cells were pretreated with a peptide for 2 hours and subsequently inoculated with HBV for 16 hours in the presence of the peptide. Free HBV and peptide were washed off. Then, the cells were further cultured for 12 days in the absence of the peptide, and HBV infection was evaluated on the basis of measurement of HBs antigen in the culture supernatant. The filled boxes and the broken-line boxes depict periods for which the treatment was performed and periods for which the treatment was not performed, respectively. […] HBV infection was evaluated by monitoring HBs antigen secreted into a culture supernatant on 12 days after inoculation by ELISA. In FIG. 2(c), a cell survival rate was measured by MTT assay.
FIG. 3 is a diagram showing the anti-HBV effect of a peptide by focused library screening. […] HBV infection was evaluated by measurement of HBe antigen (a), and a cell survival rate (b) was evaluated by MTT assay as shown in FIG. 2.
HBV genotype D used in this study (FIGS. 1 to 3) was derived from the culture supernatant of Hep38.7-Tet cells, and prepared by a known method (the method described in Tsukuda, S. et al. Dysregulation of retinoic acid receptor diminishes hepatocyte permissiveness to hepatitis B virus infection through modulation of sodium taurocholate cotransporting polypeptide (NTCP) expression. The Journal of biological chemistry 290, 5673-5684 (2015), and Ogura, N., Watashi, K., Noguchi, T. & Wakita, T. Formation of covalently closed circular DNA in Hep38.7-Tet cells, a tetracycline inducible hepatitis B virus expression cell line. Biochemical and biophysical research communications 452, 315-321 (2014)). Purified HBV (FIG. 1(d)) was prepared by ultrafiltration to remove an excess of components in FBS and medium. HBV genotypes A, B, and C and genotype C having the L180M/S202G/M204V mutations (nucleoside analog-resistant HBV) or G145R substitution (vaccine-escape HBV) (FIG. 4(d)) were prepared from the culture supernatant of HepG2 cells transfected with the corresponding expression plasmid. HBV was inoculated at 12,000 (FIGS. 1(a), 1(b), and 1(d)), 1000 to 2000 (FIG. 2(b)) or 500 (FIGS. 3(a) and 4(d)) genome equivalents (GEq)/cell in the presence of 4% polyethylene glycol 8000 (PEG8000) and incubated at 37° C. for 16 hours by a known method (the method described in Watashi, K. et al. Interleukin-1 and tumor necrosis factor-alpha trigger restriction of hepatitis B virus infection via a cytidine deaminase activation-induced cytidine deaminase (AID). The Journal of biological chemistry 288, 31715-31727 (2013)).
HBe antigen was detected by a chemiluminescence immunoassay (CLIA) (LSI Medience Corp.). HBs antigen was quantified by enzyme-linked immunosorbent assay (ELISA) as described in a known method (the method described in Watashi, K. et al. Interleukin-1 and tumor necrosis factor-alpha trigger restriction of hepatitis B virus infection via a cytidine deaminase activation-induced cytidine deaminase (AID). The Journal of biological chemistry 288, 31715-31727 (2013)).
Subsequently, the present inventors evaluated the effect of the 10 peptides described above on HBV infection in primary human hepatocytes. […] HBV infection was evaluated by measuring HBs antigen in the culture supernatant. […]

A further assay addresses T1, human NTCP (Homo sapiens, UniProt Q14973).
T1 construct: made in house; host or cells: wheat germ cell-free protein synthesis system
T1 sequence (Q14973 1-349): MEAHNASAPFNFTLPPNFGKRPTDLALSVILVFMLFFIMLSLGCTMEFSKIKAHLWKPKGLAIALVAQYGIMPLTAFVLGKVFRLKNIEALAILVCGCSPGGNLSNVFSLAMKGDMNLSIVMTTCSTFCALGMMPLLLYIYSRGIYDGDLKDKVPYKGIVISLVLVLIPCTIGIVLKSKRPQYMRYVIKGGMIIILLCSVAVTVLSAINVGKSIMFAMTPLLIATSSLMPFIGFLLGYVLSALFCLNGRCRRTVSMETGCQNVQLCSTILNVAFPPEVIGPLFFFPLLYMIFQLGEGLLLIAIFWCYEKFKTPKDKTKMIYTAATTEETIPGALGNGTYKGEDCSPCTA
The assay is described as follows: Surface plasmon resonance binding to immobilized recombinant NTCP. The following applies: Kd, single-cycle kinetics, 1:1 binding model, NTCP immobilized on NTA-Ni2+. On the procedure:
FIG. 7 is a diagram showing the NTCP association constant of a peptide identified by first RaPID screening. A single-cycle reaction kinetics experiment was conducted using NTCP immobilized on surface (NTA-Ni^2+) involving varying concentrations of a cyclic peptide analyte. In each case, as shown in the drawing, the peptide was tested with 4-fold serial dilutions starting from the highest concentration of 200 or 1000 nM. A dissociation constant (KD) was determined using a 1:1 binding model.
FIG. 9 is a diagram showing the NTCP association constant of a peptide identified by focused library RaPID screening. A single-cycle association constant experiment was conducted using NTCP immobilized on surface (NTA-Ni^2+) involving varying concentrations of a cyclic peptide analyte. In each case, as shown in the drawing, the peptide was tested with 4-fold serial dilutions starting from the highest concentration of 200 or 1000 nM. A dissociation constant (KD) was determined using a 1:1 binding model.
The association constant of each peptide for human NTCP was measured using a Biacore T200 apparatus (GE Healthcare Japan Corp.). The running buffer solution used was HBS-P+ (10 mM HEPES, 150 mM NaCl, and 0.05 vol % surfactant P20, pH 7.4) containing 0.1 vol % DMSO and 1 mM β-dodecyl-maltoside. 100 nM recombinant NTCP was immobilized on a NTA chip treated with Ni^2+ according to the manufacturer's instructions (baseline response: 1000 to 3000 refraction units). Peptides were injected as analytes at a flow rate of 60 μL/min, and association constants were modelled using a 1:1 binding model.
(SPR reads the build-up and loss of mass on a sensor chip optically.)

In assay [1] the target is T2, His-tagged recombinant NTCP protein (human sodium taurocholate cotransporting polypeptide) (human), Q14973.
T2 chain: T1 sequence (Q14973 1-349)
The assay is described as follows: SPR (Biacore T200), single-cycle kinetics, His-NTCP on Ni2+-NTA chip, peptide as analyte, 1:1 model.

For assay [2], the target named is T3, human NTCP on cells (HepG2-hNTCP-C4 cells overexpressing the human NTCP gene; primary human hepatocytes) (human), Q14973.
T3 chain: T1 sequence (Q14973 1-349)
Briefly: cell-based or functional assay.

Where a SMILES comes first, the peptide text is derived from it. Bridges are numbered along the chain shown (N, C = ends). [ ]: non-standard residue; d: D form. NMeS = CN[C@@H](CO)C(=O)O; NMeA = CN[C@@H](C)C(=O)O; Sar = CNCC(=O)O

Broadly, the Kd is a measure of binding affinity in units of concentration.

As for `CC[C@H](C)[C@@H]1NC(=O)[C@H](C)NC(=O)[C@H](Cc2c[nH]c3ccccc23)NC(=O)[C@H](Cc2c[nH]c3ccccc23)NC(=O)[C@@H](Cc2ccc(O)cc2)NC(=O)CSC[C@@H](C(=O)NCC(N)=O)NC(=O)[C@@H]2CCCN2C(=O)[C@H](Cc2c[nH]c3ccccc23)NC(=O)[C@H]([C@@H](C)O)NC(=O)[C@H](Cc2ccccc2)NC(=O)[C@H](C(C)C)NC(=O)[C@H](Cc2c[nH]cn2)NC(=O)[C@H]([C@@H](C)CC)NC(=O)[C@H](Cc2c[nH]cn2)NC(=O)[C@@H]2CCCN2C(=O)[C@H](CC(N)=O)NC1=O` [D2] ({CH2CO}-[dY]WWAINPHIHVFTWPCG-NH2; thioether N-16), in the assay with HBV genotype D, the “HBs antigen in the culture supernatant” value was “most active”. Besides, at human NTCP, the Kd is 14 nM. Taken in the same sequence, the figures for `CC[C@H](C)[C@@H]1NC(=O)[C@@H](Cc2ccc(O)cc2)NC(=O)CSC[C@@H](C(=O)NCC(N)=O)NC(=O)[C@H](CO)NC(=O)[C@H](Cc2ccc(O)cc2)NC(=O)[C@H](CC(C)C)NC(=O)[C@H](CC(C)C)NC(=O)[C@H](Cc2ccccc2)NC(=O)[C@H](CC(C)C)NC(=O)[C@H](Cc2c[nH]cn2)NC(=O)[C@H](CC(C)C)NC(=O)[C@H](CCC(=O)O)NC(=O)[C@@H]2CCCN2C(=O)[C@H](Cc2ccc(O)cc2)NC(=O)[C@H](C(C)C)NC(=O)[C@H](CC(C)C)NC1=O` [D4] ({CH2CO}-[dY]ILVYPELHLFLLYSCG-NH2; thioether N-16) were “most active” and 2270 nM.

As to `CC[C@H](C)[C@@H]1NC(=O)[C@H](Cc2c[nH]c3ccccc23)NC(=O)[C@H]([C@@H](C)CC)NC(=O)[C@H](CCC(N)=O)NC(=O)[C@H](C)N(C)C(=O)[C@H](Cc2ccc(O)cc2)NC(=O)[C@H]([C@@H](C)O)NC(=O)[C@H](Cc2ccccc2)NC(=O)[C@H]([C@@H](C)O)NC(=O)[C@@H](Cc2ccc(O)cc2)NC(=O)CSC[C@@H](C(=O)N[C@H](C(N)=O)[C@@H](C)O)NC(=O)CN(C)C(=O)[C@H](Cc2ccc(O)cc2)NC(=O)[C@H](Cc2ccc(O)cc2)NC(=O)[C@H](Cc2c[nH]c3ccccc23)NC1=O` [WD4] ({CH2CO}-[dY]TFTY[NMeA]QIWIWYY[Sar]CT-NH2; thioether N-15), the Kd on human NTCP is 11 nM.

Take `CC[C@H](C)[C@@H]1NC(=O)CN(C)C(=O)[C@H](CO)NC(=O)[C@H](Cc2ccc(O)cc2)NC(=O)[C@H](CCCCN)NC(=O)[C@H](Cc2ccc(O)cc2)NC(=O)[C@H]([C@@H](C)O)NC(=O)[C@H](Cc2ccc(O)cc2)NC(=O)CSC[C@@H](C(=O)N[C@H](C(N)=O)[C@@H](C)O)NC(=O)[C@H](Cc2c[nH]c3ccccc23)NC(=O)[C@H]([C@@H](C)CC)NC(=O)[C@H](Cc2c[nH]c3ccccc23)NC(=O)[C@H]([C@@H](C)CC)NC(=O)[C@H](Cc2c[nH]c3ccccc23)NC1=O` [WL1] ({CH2CO}-YTYKYS[Sar]IWIWIWCT-NH2; thioether N-14): the Kd at human NTCP stood at 360 nM. For `CC(C)C[C@@H]1NC(=O)[C@H](Cc2ccc(O)cc2)NC(=O)[C@H](C)NC(=O)[C@H](CO)N(C)C(=O)[C@H](Cc2c[nH]cn2)NC(=O)[C@H](Cc2c[nH]c3ccccc23)NC(=O)[C@H]([C@@H](C)O)NC(=O)[C@H](Cc2c[nH]c3ccccc23)NC(=O)[C@H]([C@@H](C)O)NC(=O)[C@H](Cc2ccc(O)cc2)NC(=O)CSC[C@@H](C(=O)N[C@H](C(N)=O)[C@@H](C)O)NC(=O)[C@H](Cc2ccccc2)NC(=O)[C@H](C(C)C)NC(=O)[C@H](Cc2ccc(O)cc2)NC1=O` [WL3] ({CH2CO}-YTWTWH[NMeS]AYLYVFCT-NH2; thioether N-14), the Kd on human NTCP was 57 nM. As to `CC[C@H](C)[C@@H]1NC(=O)[C@H](Cc2c[nH]c3ccccc23)NC(=O)[C@H]([C@@H](C)CC)NC(=O)[C@H](Cc2ccccc2)NC(=O)[C@H](CO)NC(=O)[C@H](CC(N)=O)NC(=O)[C@H](CCC(N)=O)NC(=O)[C@H](Cc2c[nH]c3ccccc23)NC(=O)[C@H]([C@@H](C)O)NC(=O)[C@H](Cc2c[nH]c3ccccc23)NC(=O)[C@H]([C@@H](C)O)NC(=O)[C@H](Cc2ccc(O)cc2)NC(=O)CSC[C@@H](C(=O)N[C@H](C(N)=O)[C@@H](C)O)NC(=O)[C@H](Cc2ccc(O)cc2)NC1=O` [WL5] ({CH2CO}-YTWTWQNSFIWIYCT-NH2; thioether N-14), the Kd at human NTCP was 10 nM. For `CC(C)C[C@@H]1NC(=O)[C@H](Cc2ccccc2)NC(=O)[C@H](C)NC(=O)[C@H](CO)N(C)C(=O)[C@H](CC(N)=O)NC(=O)[C@H](Cc2c[nH]c3ccccc23)NC(=O)[C@H]([C@@H](C)O)NC(=O)[C@H](Cc2c[nH]c3ccccc23)NC(=O)[C@H]([C@@H](C)O)NC(=O)[C@H](Cc2ccc(O)cc2)NC(=O)CSC[C@@H](C(=O)N[C@H](C(N)=O)[C@@H](C)O)NC(=O)[C@H](Cc2ccc(O)cc2)NC(=O)[C@H](C(C)C)NC(=O)[C@H](Cc2ccc(O)cc2)NC1=O` [WL6] ({CH2CO}-YTWTWN[NMeS]AFLYVYCT-NH2; thioether N-14), the Kd on human NTCP turned out to be 36 nM. As for YFIIVGTWTWTWSCT (modifications not checked) [WD1], the Kd in assay [1] was 15 nM. Further, the 50% inhibitory concentration (IC50), HBs antigen in culture supernatant, HBV infection assay in assay [2] turned out to be 850 nM. Taken in the same sequence, the figures for YVIWIWPNHFYYCT (modifications not checked) [WL4] were 42 nM and 660 nM.

In the case of YIWIWPGYVIYCT (modifications not checked) [WL2], the dissociation constant Kd in assay [1] was 157 nM. Also, the 50% inhibitory concentration (IC50), HBs antigen in culture supernatant, HBV infection assay in assay [2] is 2540 nM.
